Like-named read-outs stand apart in the source and are kept apart here.

The target of one experiment is T1, hPPARγ (Homo sapiens, UniProt P37231).
T1 sequence (P37231 238-503 limits assumed): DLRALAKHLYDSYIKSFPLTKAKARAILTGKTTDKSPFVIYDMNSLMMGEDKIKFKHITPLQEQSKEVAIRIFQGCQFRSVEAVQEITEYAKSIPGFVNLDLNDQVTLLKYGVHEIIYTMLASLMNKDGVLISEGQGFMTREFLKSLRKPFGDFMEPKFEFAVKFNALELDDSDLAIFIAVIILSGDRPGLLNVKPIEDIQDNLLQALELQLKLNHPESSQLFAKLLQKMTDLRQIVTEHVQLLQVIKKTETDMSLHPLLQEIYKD
Nature of the experiment: PPARγ SPA ligand competition binding assay.

In experiment [1] the target is T2, AR-LBD (androgen receptor) (Pan troglodytes, UniProt O97775).
T2 sequence (O97775 655-911 limits assumed): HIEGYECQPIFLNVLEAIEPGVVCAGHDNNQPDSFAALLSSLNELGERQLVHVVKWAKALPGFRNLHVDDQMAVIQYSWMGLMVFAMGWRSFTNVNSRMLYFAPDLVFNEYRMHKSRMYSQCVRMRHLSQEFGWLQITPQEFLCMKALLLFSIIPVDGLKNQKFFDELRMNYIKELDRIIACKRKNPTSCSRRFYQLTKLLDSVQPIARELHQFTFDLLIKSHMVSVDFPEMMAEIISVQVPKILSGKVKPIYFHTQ
Nature of the experiment: AR SPA ligand competition binding assay.

The next experiment addresses T3, hTRα (Homo sapiens, UniProt P10827).
T3 sequence (P10827 148-410 isoform P10827-2 limits assumed): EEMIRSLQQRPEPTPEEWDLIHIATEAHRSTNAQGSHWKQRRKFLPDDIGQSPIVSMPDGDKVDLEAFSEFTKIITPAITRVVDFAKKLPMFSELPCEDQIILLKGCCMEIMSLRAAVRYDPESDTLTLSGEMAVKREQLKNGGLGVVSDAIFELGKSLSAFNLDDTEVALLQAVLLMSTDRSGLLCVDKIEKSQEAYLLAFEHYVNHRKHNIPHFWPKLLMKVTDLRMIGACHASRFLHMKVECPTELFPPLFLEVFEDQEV
Nature of the experiment: TRα SPA ligand competition binding assay.

Another experiment deals with T4, hTRβ (Homo sapiens, UniProt P10828).
T4 sequence (P10828 217-461 limits assumed): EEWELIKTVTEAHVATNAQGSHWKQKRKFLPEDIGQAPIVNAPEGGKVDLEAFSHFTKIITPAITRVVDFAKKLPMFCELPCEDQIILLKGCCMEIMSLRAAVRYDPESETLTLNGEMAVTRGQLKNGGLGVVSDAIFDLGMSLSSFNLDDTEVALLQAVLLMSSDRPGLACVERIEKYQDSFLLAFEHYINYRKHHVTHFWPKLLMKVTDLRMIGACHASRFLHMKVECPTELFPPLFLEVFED
Nature of the experiment: TRβ SPA ligand competition binding assay.

With `O=C(Nc1ccccc1)c1cc([N+](=O)[O-])ccc1Cl` [GW9662], the IC50 (usually the point on the concentration scale where inhibition reaches its midpoint) at hPPARγ (read-out: IC50 PPARγ, SPA competition, 40 nM [3H]-Rosiglitazone) was 0.23 ± 0.02 µM.
In the case of `CC(C)(O)C(=O)Nc1ccc([N+](=O)[O-])c(C(F)(F)F)c1` [Hydroxyflutamide], the IC50 in experiment [1] was found to be 33 ± 8 µM.
Turning to `O=C(O)Cc1cc(I)c(Oc2cc(I)c(O)c(I)c2)c(I)c1` [T4Ac, 3,3’,5,5’-tetraiodothyroacetic acid], the IC50 on hTRα (read-out: IC50 TRα, SPA competition, 1 nM [125I]-T3) is 10 ± 2 µM; at hTRβ (read-out: IC50 TRβ, SPA competition, 1 nM [125I]-T3) it was 5 ± 2 µM.
Consider `O=C(O)c1cc(I)c(Oc2ccc(O)c(I)c2)c(I)c1` [T3Bz, 4-(4'-Hydroxy-3'-iodophenoxy)-3,5-diiodo-benzoic acid], for which the results for the IC50 at hTRα and at hTRβ were 12 ± 2 µM and 10 ± 4 µM, respectively.
Consider `C[C@]1(O)CC[C@H]2[C@@H]3CCC4=CC(=O)CCC4=C3C=C[C@@]21C` [Methyltrienolone (R1881), Methyltrienolone], for which the IC50 in experiment [1] (IC50 AR) came out at 0.11 ± 0.02 µM.
Consider `CCCCC/C=C\C/C=C\C/C=C\C/C=C\CCCC(=O)O` [Arachidonic Acid], for which the half-maximal inhibitory concentration (IC50) at hPPARγ amounted to 4.2 ± 0.53 µM.
On the same count and under the same terms, then `CCCCC/C=C\C/C=C\CCCCCCCC(=O)O` [Lineolic Acid], with 3.8 ± 0.49 µM.

These data come from PMC2632761 (Journal of biomolecular screening, 2009).
